Measured values taken from patent publication US12083089B2, “Compositions and methods for stimulating ventilatory and/or respiratory drive” (CASE WESTERN RESERVE UNIVERSITY, priority 2015, dated 2024).

How the values were obtained:
[1] = test system: freely moving adult male Sprague-Dawley rats; test: Whole-body plethysmography of ventilatory parameters in morphine-treated rats; settings: morphine 10 mg/kg IV; for EF50, ml/sec - Total Response (% change) / Expiratory Drive (TV/Te), ml/sec - Total Response (% change) / Expiratory Time (Te), sec - Total Response (% change) / Frequency, breaths/min - Total Response (% change) / Inspiratory Drive (TV/Ti), ml/sec - Total Response (% change) / Inspiratory Time (Ti), sec - Total Response (% change) / Inspiratory Time/Expiratory Time - Total Response (% change) / Minute Ventilation, ml/min - Total Response (% change) / Peak Expiratory Flow, ml/sec - Total Response (% change) / Peak Expiratory Flow/Peak Inspiratory Flow - Total Response (% change) / Peak Inspiratory Flow, ml/sec - Total Response (% change) / Tidal Volume (TV), ml - Total Response (% change): over the 15 min before drug injection
Protocol: Permissions, rats, surgical procedures and blinding of protocols. All studies were carried out in accordance with the NIH Guide for the Care and Use of Laboratory Animals (NIH Publication No. […]) revised in 1996. The protocols were approved by the Animal Care and Use Committees of the University of Virginia, Case Western Reserve University and Loma Linda University. In addition, all studies were carried out in compliance with the ARRIVE (Animal Research: Reporting of In Vivo Experiments) guidelines. Adult male Sprague-Dawley rats (Harlan, Madison, WI, USA) were implanted with jugular vein catheters under 2% isoflurane anesthesia and some rats received femoral arterial catheters. The rats were allowed at least four days to recover from surgery before use. All arterial catheters were flushed daily with heparin solution (50 units of heparin in phosphate-buffered saline at 0.1 M, pH 7.4). All catheters were flushed with phosphate-buffered saline (0.1 M, pH 7.4) approximately four hours before commencement of the experiments. All studies were performed in a quiet laboratory with relative humidity of 49±2% and room temperature of 21.4±0.2° C. […] Also, please note that the antinociception and ventilatory studies were done in separate groups of rats so as to not complicate the respiratory measurements. The recording (plethysmography, antinociception) sessions and the arterial blood gas assays were done by a particular investigator who administered the opioid, vehicle or test drug such as d-cystine diME. The syringes containing the vehicle or test drug were made up by another investigator, such that the investigator running the actual experiment was blinded to the treatment protocol. In every case, the data files resulting from a particular study were first collated and analyzed by another investigator in the group.
Ventilatory parameters were recorded in freely moving rats by whole body plethysmography (PLY3223; Data Sciences International, St. Paul, MN). The rats were placed in individual chambers and given 60 min to acclimatize to allow true resting ventilatory parameters to be established. […] The rats received another injection of vehicle or 1-NACme (500 μmol/kg, IV) 15 min later and ventilatory parameters were recorded for a further 60 min.
The provided software (Fine Pointe, BUXCO) constantly corrected digitized values for changes in chamber temperature and humidity. Pressure changes associated with the respiratory waveforms were then converted to volumes (i.e., TV, PIF and PEF) using the algorithm of Epstein and colleagues. Specifically, factoring in chamber temperature and humidity, the cycle analyzers filtered the acquired signals, and BUXCO algorithms (Fine Pointe) generated an array of box flow data that identified a waveform segment as an acceptable breath. From that data vector, the minimum and maximum values were determined. Flows at this point were considered to be “box flow” signals.
The recorded data (1 min bins) and derived parameters, Vt/Ti and Response Area (cumulative percent changes from pre-values) were taken for statistical analyses. The pre-drug 1 min bins excluded occasional marked deviations from resting due to movements or scratching by the rats. These exclusions ensured accurate determinations of baseline parameters. The data are presented as mean±SEM. All data unless other-wise stated (see immediately below) were analyzed by one-way or two-way analysis of variance followed by Student's modified t test with Bonferroni corrections for multiple comparisons between means using the error mean square terms from each ANOVA. A value of P<0.05 denoted the initial level of statistical significance that was modified according to the number of comparisons between means.

adult male rats = test: Hargreaves Hind-paw Latency Test, morphine 1 mg/kg; assay type: in vivo, rat; settings: given alone, morphine sulfate 1 mg/kg IV
[2] = freely moving rats, then d-cystine diEE 500 μmol/kg IV 15 min later
[3] = rats that subsequently received D-Cystine diEE
[4] = rats that subsequently received vehicle, D-Cystine diEE study
[5] = rats that subsequently received D-Cystine
[6] = rats that subsequently received L-NACme
[7] = rats that subsequently received vehicle, D-Cystine study
[8] = rats that subsequently received vehicle, L-NACme study

In the case of `CN1CC[C@]23c4c5ccc(O)c4O[C@H]2[C@@H](O)C=C[C@H]3[C@H]1C5` [Morphine, morphine], the “changes in EF50” value [1, 2] is reported as “sustained increase”, the “changes in expiratory drive (TV/Te)” value [1, 2] is reported as “relatively pronounced but shorter-lived decrease” and the “changes in expiratory time (Te)” value [1, 2] is reported as “decreases in Te”. For the same compound, the “changes in frequency of breathing (Freq)” value [1, 2] was “brief increase in Freq that was followed a relatively transient decrease”, the “changes in inspiratory drive (TV/Ti)” value [1, 2] was “prompt and sustained decrease” and the “changes in inspiratory time (Ti)” value [1, 2] was “sustained increases in Ti”. The “changes in minute ventilation (MV)” value [1, 2] was “transient increase in MV that was followed by a sustained decrease”, the “changes in peak expiratory flow (PEF)” value [1, 2] was “lesser decreases” and the “changes in peak inspiratory flow (PIF)” value [1, 2] was “pronounced and sustained decrease”. The “changes in tidal volume (TV)” value [1, 2] was “prompt and sustained decrease”, the “EF50, ml/sec - Total Response (% change)” value [1, 3] was “+33.4 ± 15.0 %” and the “Expiratory Drive (TV/Te), ml/sec - Total Response (% change)” value [1, 3] was −14.6 ± 10.2%. The “Expiratory Time (Te), sec - Total Response (% change)” value [1, 3] was −2.0 ± 6.1%, the “Frequency, breaths/min - Total Response (% change)” value [1, 3] was −1.9 ± 6.6% and the “Inspiratory Drive (TV/Ti), ml/sec - Total Response (% change)” value [1, 3] was −44.5 ± 5.5 %. For the same compound, the “Inspiratory Time (Ti), sec - Total Response (% change)” value [1, 3] was “+40.2 ± 6.3 %”, the “Inspiratory Time/Expiratory Time - Total Response (% change)” value [1, 3] was −27.1 ± 6.2 % and the “Minute Ventilation, ml/min - Total Response (% change)” value [1, 3] was −28.4 ± 6.4 %. The “Peak Expiratory Flow, ml/sec - Total Response (% change)” value [1, 3] was −16.2 ± 5.7 %, the “Peak Expiratory Flow/Peak Inspiratory Flow - Total Response (% change)” value [1, 3] was “+21.5 ± 6.7 %” and the “Peak Inspiratory Flow, ml/sec - Total Response (% change)” value [1, 3] was −29.7 ± 2.7 %. The “Tidal Volume (TV), ml - Total Response (% change)” value [1, 3] was −26.3 ± 7.4 %, the “EF50, ml/sec - Total Response (% change)” value [1, 4] was “+30.5 ± 14.7 %” and the “Expiratory Drive (TV/Te), ml/sec - Total Response (% change)” value [1, 4] was −22.3 ± 13.6%. The “Expiratory Time (Te), sec - Total Response (% change)” value [1, 4] was −4.7 ± 6.0%, the “Frequency, breaths/min - Total Response (% change)” value [1, 4] was “+0.3 ± 4.3%” and the “Inspiratory Drive (TV/Ti), ml/sec - Total Response (% change)” value [1, 4] was −44.3 ± 7.1 %. For the same compound, the “Inspiratory Time (Ti), sec - Total Response (% change)” value [1, 4] was “+38.6 ± 2.9 %”, the “Inspiratory Time/Expiratory Time - Total Response (% change)” value [1, 4] was −24.1 ± 4.7 % and the “Minute Ventilation, ml/min - Total Response (% change)” value [1, 4] was −28.6 ± 7.2 %. The “Peak Expiratory Flow, ml/sec - Total Response (% change)” value [1, 4] was −17.4 ± 6.1 %, the “Peak Expiratory Flow/Peak Inspiratory Flow - Total Response (% change)” value [1, 4] was “+27.6 ± 7.0 %” and the “Peak Inspiratory Flow, ml/sec - Total Response (% change)” value [1, 4] was −29.5 ± 8.1 %. For the same compound, the “Tidal Volume (TV), ml - Total Response (% change)” value [1, 4] was −29.3 ± 7.6 %, the “Frequency: Morphine - first 15 min response (%)” value [1, 5] was −4.7 ± 3.1% and the “Frequency: Morphine - peak (+) response (%)” value (“Frequency … (+) response (%)” below) [1, 5] was “+62 ± 7 %”. The “Frequency: Morphine peak (−) response (%)” value (from here on “Frequency … (−) response (%)”) [1, 5] was −23 ± 4 %, the “Minute Ventilation: Morphine - first 15 min response (%)” value [1, 5] was −38 ± 5 % and the “Minute Ventilation: Morphine - peak (+) response (%)” value [1, 5] was “+14 ± 3 %”. For the same compound, the “Minute Ventilation: Morphine peak (−) response (%)” value [1, 5] was −61 ± 8 %, the “Tidal Volume: Morphine - first 15 min response (%)” value [1, 5] was −35 ± 5 % and the “Tidal Volume: Morphine - peak (+) response (%)” value (“Tidal Volume … (+) response (%)” for short) [1, 5] was −30 ± 4 %. The “Tidal Volume: Morphine peak (−) response (%)” value [1, 5] was −51 ± 6 %, the “EF50, ml/sec - Peak Responses (% change)” value [1, 3] was “+122 ± 27 %” and the “Expiratory Drive (TV/Te), ml/sec - Peak Responses (% change)” value [1, 3] was −46.2 ± 7.8 %. For the same compound, the “Expiratory Time (Te), sec - Peak Responses (% change)” value [1, 3] was −32.4 ± 17.6%, the “Frequency, breaths/min - Peak Responses (% change)” value [1, 3] was −20.0 ± 4.5 % and the “Inspiratory Drive (TV/Ti), ml/sec - Peak Responses (% change)” value [1, 3] was −53.7 ± 6.0 %. For the same compound, the “Inspiratory Time (Ti), sec - Peak Responses (% change)” value [1, 3] was “+41.3 ± 7.1 %”, the “Inspiratory Time/Expiratory Time - Peak Responses (% change)” value [1, 3] was −41.7 ± 7.8 % and the “Minute Ventilation, ml/min - Peak Responses (% change)” value [1, 3] was −48.5 ± 6.0 %. The “Peak Expiratory Flow, ml/sec - Peak Responses (% change)” value [1, 3] was −34.8 ± 6.7 %, the “Peak Expiratory Flow/Peak Inspiratory Flow - Peak Responses (% change)” value [1, 3] was “+26.7 ± 5.4 %” and the “Peak Inspiratory Flow, ml/sec - Peak Responses (% change)” value [1, 3] was −43.2 ± 2.7 %. The “Tidal Volume (TV), ml - Peak Responses (% change)” value [1, 3] was −35.8 ± 6.9 %, the “Frequency: Morphine - first 15 min response (%)” value [1, 6] was −4.9 ± 2.8% and the “Frequency … (+) response (%)” value [1, 6] was “+42 ± 6 %”. The “Frequency … (−) response (%)” value [1, 6] was −22 ± 4 %, the “Minute Ventilation: Morphine - first 15 min response (%)” value [1, 6] was −35 ± 3 % and the “Minute Ventilation: Morphine - peak (+) response (%)” value [1, 6] was “+20 ± 6 %”. The “Minute Ventilation: Morphine peak (−) response (%)” value [1, 6] was −54 ± 4 %, the “Tidal Volume: Morphine - first 15 min response (%)” value [1, 6] was −34 ± 3 % and the “Tidal Volume … (+) response (%)” value [1, 6] was −16 ± 6 %. For the same compound, the “Tidal Volume: Morphine peak (−) response (%)” value [1, 6] was −40 ± 6 %, the “EF50, ml/sec - Peak Responses (% change)” value [1, 4] was “+133 ± 42 %” and the “Expiratory Drive (TV/Te), ml/sec - Peak Responses (% change)” value [1, 4] was −51.5 ± 10.1 %. For the same compound, the “Expiratory Time (Te), sec - Peak Responses (% change)” value [1, 4] was −29.3 ± 17.1%, the “Frequency, breaths/min - Peak Responses (% change)” value [1, 4] was −21.5 ± 3.4 % and the “Inspiratory Drive (TV/Ti), ml/sec - Peak Responses (% change)” value [1, 4] was −52.7 ± 5.4 %. The “Inspiratory Time (Ti), sec - Peak Responses (% change)” value [1, 4] was “+37.9 ± 3.0 %”, the “Inspiratory Time/Expiratory Time - Peak Responses (% change)” value [1, 4] was −38.0 ± 4.2 % and the “Minute Ventilation, ml/min - Peak Responses (% change)” value [1, 4] was −51.2 ± 6.3 %. For the same compound, the “Peak Expiratory Flow, ml/sec - Peak Responses (% change)” value [1, 4] was −38.1 ± 8.5 %, the “Peak Expiratory Flow/Peak Inspiratory Flow - Peak Responses (% change)” value [1, 4] was “+30.2 ± 3.4 %” and the “Peak Inspiratory Flow, ml/sec - Peak Responses (% change)” value [1, 4] was −45.6 ± 7.0 %. For the same compound, the “Tidal Volume (TV), ml - Peak Responses (% change)” value [1, 4] was −42.9 ± 8.7 %, the “Frequency: Morphine - first 15 min response (%)” value [1, 7] was −3.8 ± 2.6% and the “Frequency … (+) response (%)” value [1, 7] was “+57 ± 8 %”. For the same compound, the “Frequency … (−) response (%)” value [1, 7] was −21 ± 3 %, the “Minute Ventilation: Morphine - first 15 min response (%)” value [1, 7] was −39 ± 4 % and the “Minute Ventilation: Morphine - peak (+) response (%)” value [1, 7] was “+9 ± 3 %”. The “Minute Ventilation: Morphine peak (−) response (%)” value [1, 7] was −60 ± 9 %, the “Tidal Volume: Morphine - first 15 min response (%)” value [1, 7] was −37 ± 6 % and the “Tidal Volume … (+) response (%)” value [1, 7] was −32 ± 5 %. For the same compound, the “Tidal Volume: Morphine peak (−) response (%)” value [1, 7] was −49 ± 5 %, the “Frequency: Morphine - first 15 min response (%)” value [1, 8] was −4.0 ± 2.1% and the “Frequency … (+) response (%)” value [1, 8] was “+47 ± 6 %”. For the same compound, the “Frequency … (−) response (%)” value [1, 8] was −24 ± 3 %, the “Minute Ventilation: Morphine - first 15 min response (%)” value [1, 8] was −36 ± 3 % and the “Minute Ventilation: Morphine - peak (+) response (%)” value [1, 8] was “+19 ± 5 %”. The “Minute Ventilation: Morphine peak (−) response (%)” value [1, 8] was −53 ± 5 %, the “Tidal Volume: Morphine - first 15 min response (%)” value [1, 8] was −33 ± 4 % and the “Tidal Volume … (+) response (%)” value [1, 8] was −19 ± 3 %. For the same compound, the “Tidal Volume: Morphine peak (−) response (%)” value [1, 8] was −38 ± 5 %, the “Hargreaves hind-paw withdrawal latency” value (adult male rats; D-cystine diME 500 μmol/kg IV, FIG. 26 study) was 16.3 ± 1.8 s and the “Hargreaves hind-paw withdrawal latency” value (adult male rats; L-cystine diME 500 μmol/kg IV, FIG. 24 study) was 19.5 ± 0.4 s.
